# Like-named read-outs stand apart in the source and are kept apart here.
# Key:
# Assay in all cases: Etest MIC of indicator carbapenems on MH II agar without/with PMBN
# Type in all cases: cell-based
# [1] = tested on: K. pneumoniae 1204039 (membrane impermeability)
# Method in brief: (§1)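 MICs are read directly from Etest strips of imipenem, ertapenem or meropenem after 16–20 h at 35° C. The agar is MH II with PMBN at 0 up to ⅕ of its own MIC, inoculated by swab at 0.5 McFarland.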
# [2] = tested on: K. pneumoniae 1204035 (membrane impermeability); details: in µg/mL
# Method in brief: as §1
# [3] = tested on: E. coli SAB 100 (porin−); details: Escherichia coli
# Method in brief: as §1
# [4] = tested on: K. pneumoniae 1108003 (KPC-3 producer)
# Method in brief: as §1
# [5] = tested on: E. cloacae 1204153 (membrane impermeability); details: in µg/mL
# Method in brief: as §1
# [6] = tested on: E. cloacae 1109137 (OXA-48 producer)
# Method in brief: as §1
# [7] = tested on: E. cloacae 1204053 (membrane impermeability)
# Method in brief: as §1
# [8] = tested on: E. cloacae 1008074 (VIM producer)
# Method in brief: as §1
# [9] = tested on: E. cloacae 1204052 (membrane impermeability)
# Method in brief: as §1
# [10] = tested on: E. coli SAB 108 (porin−); details: Escherichia coli
# Method in brief: as §1
# [11] = tested on: K. pneumoniae 1012142 (KPC-2 producer)
# Method in brief: as §1
# [12] = tested on: E. aerogenes 1204050 (membrane impermeability); details: in µg/mL
# Method in brief: as §1
# [13] = tested on: Enterobacter aerogenes EA 27 (porin−); details: Klebsiella aerogenes
# Method in brief: as §1
# [14] = tested on: K. pneumoniae KP 55 (porin−); details: Klebsiella pneumoniae
# Method in brief: as §1
# [15] = tested on: E. cloacae 1204058 (membrane impermeability); details: in µg/mL
# Method in brief: as §1
# [16] = tested on: E. cloacae 1204051 (membrane impermeability)
# Method in brief: as §1
# [17] = tested on: E. coli 1008078 (VIM producer)
# Method in brief: as §1
smiles,measurement,setting,value
"C[C@@H](O)[C@H]1C(=O)N2C(C(=O)O)=C(S[C@@H]3CN[C@H](C(=O)Nc4cccc(C(=O)O)c4)C3)[C@H](C)[C@H]12 [ETP, ertapenem]",MIC,"[1]; [PMBN] 0, Table 4a",2 µg/mL
same,MIC,"[1]; [PMBN] 100, Table 4a",1.5 µg/mL
same,MIC,"[1]; [PMBN] 200, Table 4a",1.5 µg/mL
same,MIC,"[1]; [PMBN] 300, Table 4a",1 µg/mL
same,MIC,"[2]; [PMBN] 0, Table 4a",>32
same,MIC,"[2]; [PMBN] 100, Table 4a",8
same,MIC,"[2]; [PMBN] 200, Table 4a",8-12
same,MIC,"[2]; [PMBN] 300, Table 4a",6
same,MIC,[3]; [PMBN] 0,1.5 µg/mL
same,MIC,[3]; [PMBN] 50 μg/ml,0.19 µg/mL
same,MIC,[3]; [PMBN] 100 μg/ml,0.19 µg/mL
same,MIC,[3]; [PMBN] 150 μg/ml,0.125 µg/mL
same,MIC,[3]; [PMBN] 200 μg/ml,0.125 µg/mL
same,MIC,"[4]; [PMBN] 0, Table 4a",8 µg/mL
same,MIC,"[4]; [PMBN] 100, Table 4a",24 µg/mL
same,MIC,"[4]; [PMBN] 200, Table 4a",> 32 µg/mL
same,MIC,"[4]; [PMBN] 300, Table 4a",> 32 µg/mL
same,MIC,"[5]; [PMBN] 0, Table 4a",>32
same,MIC,"[5]; [PMBN] 100, Table 4a",8
same,MIC,"[5]; [PMBN] 200, Table 4a",4
same,MIC,"[5]; [PMBN] 300, Table 4a",3
same,MIC,"[6]; [PMBN] 0, Table 4a",24 µg/mL
same,MIC,"[6]; [PMBN] 200, Table 4a",12 µg/mL
same,MIC,"[6]; [PMBN] 300, Table 4a",> 32 µg/mL
same,MIC,"[7]; [PMBN] 0, Table 4a",> 32 µg/mL
same,MIC,"[7]; [PMBN] 100, Table 4a",> 32 µg/mL
same,MIC,"[7]; [PMBN] 200, Table 4a",> 32 µg/mL
same,MIC,"[7]; [PMBN] 300, Table 4a",4 µg/mL
same,MIC,"[8]; [PMBN] 0, Table 4a",0.38 µg/mL
same,MIC,"[8]; [PMBN] 100, Table 4a",0.5 µg/mL
same,MIC,"[8]; [PMBN] 200, Table 4a",0.5 µg/mL
same,MIC,"[8]; [PMBN] 300, Table 4a",0.5 µg/mL
same,MIC,"[9]; [PMBN] 0, Table 4a",> 32 µg/mL
same,MIC,"[9]; [PMBN] 100, Table 4a",12 µg/mL
same,MIC,"[9]; [PMBN] 200, Table 4a",8 µg/mL
same,MIC,"[9]; [PMBN] 300, Table 4a",3 µg/mL
same,MIC,[10]; [PMBN] 0,4 µg/mL
same,MIC,[10]; [PMBN] 50 μg/ml,0.25 µg/mL
same,MIC,[10]; [PMBN] 100 μg/ml,0.19 µg/mL
same,MIC,[10]; [PMBN] 150 μg/ml,0.19 µg/mL
same,MIC,[10]; [PMBN] 200 μg/ml,0.19 µg/mL
same,MIC,"[11]; [PMBN] 0, Table 4a",32 µg/mL
same,MIC,"[11]; [PMBN] 100, Table 4a",> 32 µg/mL
same,MIC,"[11]; [PMBN] 200, Table 4a",> 32 µg/mL
same,MIC,"[11]; [PMBN] 300, Table 4a",> 32 µg/mL
same,MIC,"[12]; [PMBN] 0, Table 4a",>32
same,MIC,"[12]; [PMBN] 100, Table 4a",>32
same,MIC,"[12]; [PMBN] 200, Table 4a",>32
same,MIC,"[12]; [PMBN] 300, Table 4a",>32
same,MIC,[13],0.125 µg/mL
same,MIC,"[13]; E. aerogenes EA 27 (porin−), [PMBN] 0, Table 4, read-out: MIC",> 32 µg/mL
same,MIC,"[13]; E. aerogenes EA 27 (porin−), [PMBN] 50 μg/ml, read-out: MIC",4 µg/mL
same,MIC,"[13]; E. aerogenes EA 27 (porin−), [PMBN] 100 μg/ml, read-out: MIC",1.5 µg/mL
same,MIC,"[13]; E. aerogenes EA 27 (porin−), [PMBN] 150 μg/ml, read-out: MIC",0.75 µg/mL
same,MIC,"[13]; E. aerogenes EA 27 (porin−), [PMBN] 200 μg/ml, read-out: MIC",0.19 µg/mL
same,MIC,"[13]; EA 27 (porin−), [PMBN] 0, Table 2, read-out: MIC",64 µg/mL
same,MIC,"[13]; EA 27 (porin−), [PMBN] MIC/8, read-out: MIC",0.25 µg/mL
same,MIC,"[13]; EA 27 (porin−), [PMBN] MIC/10, read-out: MIC",16 µg/mL
same,MIC,[14]; [PMBN] 0,0.38 µg/mL
same,MIC,[14]; [PMBN] 50 μg/ml,0.25 µg/mL
same,MIC,[14]; [PMBN] 100 μg/ml,0.19 µg/mL
same,MIC,[14]; [PMBN] 150 μg/ml,0.125 µg/mL
same,MIC,[14]; [PMBN] 200 μg/ml,0.064 µg/mL
same,MIC,"[15]; [PMBN] 0, Table 4a",>32
same,MIC,"[15]; [PMBN] 100, Table 4a",8-12
same,MIC,"[15]; [PMBN] 300, Table 4a",0.75
same,MIC,"[16]; [PMBN] 0, Table 4a",> 32 µg/mL
same,MIC,"[16]; [PMBN] 100, Table 4a",12 µg/mL
same,MIC,"[16]; [PMBN] 200, Table 4a",4 µg/mL
same,MIC,"[16]; [PMBN] 300, Table 4a",3 µg/mL
same,MIC,"[17]; [PMBN] 0, Table 4a",2 µg/mL
same,MIC,"[17]; [PMBN] 100, Table 4a",0.75 µg/mL
same,MIC,"[17]; [PMBN] 200, Table 4a",0.5 µg/mL
same,MIC,"[17]; [PMBN] 300, Table 4a",0.38 µg/mL

# Source: patent publication US20180155757A1, “IDENTIFICATION OF BACTERIA THAT ARE RESISTANT TO CARBAPENEMS BY MEMBRANE IMPERVIOUSNESS” (BIOMÉRIEUX, priority 2015, published 2018)
